In US5506215A, “1-(3'-fluoro-2',3'-dideoxy-β-D-ribofuranosyl)-5-substituted pyrimidine nucleosides” (Medivir AB, priority 1987, dated 1996):
Where “and” joins values, the source holds several entries; their conditions need not be identical. Identical values can stand only once. Like-named read-outs stand apart in the source and are kept apart here. Values belong to the molecule of their own block, whether it stands above or below them.

Legend:
HIV [1] = test: Inhibition of HIV multiplication in cell culture, H9 cells (Koshida et al. method); assay type: cell-based; conditions: for inhibition at 0.1 µg/mL: Human immunodeficiency virus 1, H9, 0.1 μg/ml; for inhibition at 10 µg/mL: Human immunodeficiency virus 1, H9, 10 μg/ml; for inhibition at 1 µg/mL: Human immunodeficiency virus 1, H9, 1 μg/ml
Excerpt: The activity against human immunodeficiency virus (HIV) has been tested for the compounds listed and the resulting activities are shown in the Table below.
The data in the Table were gathered and tests performed as described by Koshida et el., "Inhibition of Human Immunodeficiency Virus in vitro by Combination of 3'-Azido-3'-Deoxythymidine and Foscarnet" in Antimicrob Agents and Chemotherapy, Vol 33 (1989) p. 778-780 (on H9 cells for compounds X-XII) and by De Clercq et el, Nucleosides and Nucleotides, Vol 8 (1989) p. 659-671 (on MT4 cells, literature data for compounds XIV-XVI).

HIV (HTLV-IIIB) = test: Test I, effect of compounds on HIV in H9 cells (HIV antigen containing cells); assay type: cell-based; conditions: read-out: Concentration for 50% inhibition (IC50) of human immuno deficiency virus multiplication in cell culture
Description: Materials and methods: HIV infection of H9 cells
H9 cells, 10^5 cells per well on a 24 well plate, suspended in 2 ml RPMI-medium containing 10% fetal calf serum, 100 μg/ml penicillin, 10 μg/ml streptomycin sulfate and 2μg/ml polybrene are exposed to HIV (HTLV-IIIB) and different concentrations of the test compounds. The plates are incubated at 37° C. in 5% CO2 for 6-7 days. The contents in each well is then homogenized with a pipette and transferred to a centrifuge tube. After centrifugation for 10 min at 1500 rpm the supernatant is removed and the cell pellet is analyzed by fixing in methanol on glass plates. Human HIV positive serum diluted 1:80 or 1:160 is added and incubated for 30 min at 37° C. The plate is then washed with phosphate-buffered saline (PBS) containing Ca^2+ and Mg^2+. Sheep antihuman conjugate (FITC) is added and after a new incubation the plate is again washed with PBS. Contrast staining is done with Evans blue and after drying the frequency of HIV antigen containing cells is determined in a microscope.

[2] = Test II, cellular toxicity, H9 cells; assay type: cell-based; conditions: human, read-out: % inhibition of cell multiplication
Description: H9 cells, 2×10^7 cells per plate, are incubated in […] medium containing 10% fetal calf serum, 70 mg/l penicillin, 100 mg/l streptomycin and 10 mM hepes, in absence or presence of test compounds. The number of cells per plate is determined after 48 h. Cells incubated in the absence of test compounds then underwent two cell division cycles.
(§1) F5000 cells, which are human embryo cells, 1×10^5 cells per plate, are incubated in Eagle's minimal essential medium, supplemented with Earle's salts, non-essential amino acids, 10% fetal calf serum, 10 mM hopes, 70 mg/l penicillin and 100 mg/l streptomycin, in absence or presence of test compounds. The number of cells per plate is determined after 48 h. Cells incubated in the absence of test compounds underwent one cell division cycle.

[3] = Test II, cellular toxicity, F5000 cells; assay type: cell-based; conditions: human, read-out: % inhibition of cell multiplication
Description: as §1

HIV [4] = conditions: MT4 cells, literature data, cited from earlier work
[5] = Human immunodeficiency virus 1, 6-7 days

SMILES: CO[C@H]1[C@H](F)[C@@H](CO)O[C@H]1n1cc(C)c(=O)[nH]c1=O [Example X, 1-(3'-fluoro-2'-methoxy-2',3'-dideoxy-β-D-arabinofuranosyl)thymine]
- % Inhibition of HIV multiplication (HIV [1]; 10 μg/ml): 83% and 79%
- inhibition at 0.1 µg/mL (HIV [1]): 58%
- inhibition at 10 µg/mL (HIV [1]): 85%

SMILES: CO[C@H]1[C@H](N=[N+]=[N-])[C@@H](CO)O[C@H]1n1cc(C)c(=O)[nH]c1=O [Example XI, 1-(3'-azido-2'-methoxy-2',3'-dideoxy-β-D-arabinofuranosyl)thymine]
- % Inhibition of HIV multiplication (HIV [1]; 0.1 μg/ml): 32%
- % Inhibition of HIV multiplication (HIV [1]; 1 μg/ml): 38%
- inhibition at 0.1 µg/mL (HIV [1]): 27%
- inhibition at 1 µg/mL (HIV [1]): 21%

SMILES: C#C[C@H]1C[C@H](n2cc(C)c(=O)[nH]c2=O)O[C@@H]1CO [Example XII, 1-[2,3-Dideoxy-3-C-ethynyl-β-D-erythro-pentofuranosyl]thymine]
- inhibition at 1 µg/mL (HIV [1]): 18%
- inhibition at 10 µg/mL (HIV [1]): 54%

- IC50 (HIV (HTLV-IIIB); [5]): 1000 nM
SMILES: CCCc1cn([C@H]2C[C@H](F)[C@@H](CO)O2)c(=O)[nH]c1=O [VSA 408, 1-(3'-F-2',3'-dideoxy-β-ribofuranosyl)-5-propyl-uracil]
- inhibition at 48 h, 250 µM ([2]; 250 μM): 15%
- inhibition at 48 h, 100 µM [3]: 0%

- IC50 (HIV (HTLV-IIIB); [5]): < 1000 nM
SMILES: CCc1cn([C@H]2C[C@H](F)[C@@H](CO)O2)c(=O)[nH]c1=O [VSA 410, 1-(3'-F-2',3'-dideoxy-β-D-ribofuranosyl)-5-ethyl-uracil]
- inhibition at 48 h, 100 µM ([2]; 100 μM): 25%
- inhibition at 48 h, 100 µM [3]: 25%

- IC50 (HIV (HTLV-IIIB); [5]): 500 nM
SMILES: O=c1ccn([C@H]2C[C@H](F)[C@@H](CO)O2)c(=O)[nH]1 [VSA 417, 1-(3'-F-2',3'-dideoxy-β-D-ribofuranosyl)-uracil]
- inhibition at 48 h, 100 µM [3]: 10%

- IC50 (HIV (HTLV-IIIB); 6-7 days): < 10 nM
SMILES: CC(=O)OC[C@H]1O[C@@H](n2cc(C)c(=O)[nH]c2=O)C[C@@H]1F [VSB 423, 1-(5'-acetyl-3'-fluoro-2',3'-dideoxy-β-D-ribofuranosyl)-5-methyluracil]

SMILES: O=c1[nH]c(=O)n([C@H]2C[C@H](F)[C@@H](CO)O2)cc1Br [XIV, 5-bromo-1-(3'-fluoro-2',3'-dideoxy-β-D-ribofuranosyl)uracil]
- % Inhibition of HIV multiplication (HIV [4]; 0.1 μg/ml): 50%

SMILES: O=c1[nH]c(=O)n([C@H]2C[C@H](F)[C@@H](CO)O2)cc1I [XV, 5-iodo-1-(3'-fluoro-2',3'-dideoxy-β-D-ribofuranosyl)uracil]
- % Inhibition of HIV multiplication (HIV [4]; 0.1 μg/ml): 50%

SMILES: O=c1[nH]c(=O)n([C@H]2C[C@H](F)[C@@H](CO)O2)cc1Cl [XVI]
- % Inhibition of HIV multiplication (HIV [4]; 0.04 μg/ml): 50%
